Experimental findings from ChEMBL document CHEMBL1201862, “PubChem BioAssay data set” (2004) are described below.

“And” between values parts separate entries of the source, which are not always exact repeats. Identical values can stand only once.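 A five-concentration, 48-hour dose response in 96-well plates underlies each endpoint, interpolated linearly between surrounding concentrations. GI50 marks 50% less growth.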 The source made the active and inactive calls. Rule as the data show it: active = GI50 up to about 1.1 µM and inactive = higher. Where a SMILES comes first, the peptide text is derived from it. The star is where a group is joined. Cbz = O=C(OCc1ccccc1)*; NHNH2 = NN*

What all share (experiment): NCI tumour cell line growth inhibition, 48 h
The test system of test [1] is IGROV-1.
Test [2] deals with SK-MEL-28.
Test [3] deals with MCF7.
The test system of test [4] is HCT-15.
Test [5] deals with A498.
The test system of test [6] is SF-539.
The test system of test [7] is NCI-H226.
The subject of test [8] is HCT-116.
Test [9] relates to MDA-MB-435.
The test system of test [10] is K562.
In test [11] the test system is NCI/ADR-RES.
In test [12] the test system is SF-295.
Test [13] relates to HCC 2998.
Test [14] concerns SK-MEL-5.
In test [15] the test system is NCI-H460.
The test system of test [16] is UO-31.
Test [17] deals with MDA-N.
For test [18], the system named is PC-3.
Test [19] deals with BT-549.
The subject of test [20] is MDA-MB-231.

`O=c1[nH]nc(Cc2ccccc2)[nH]1`: the GI50 in [1] is > 100 µM (inactive); in [2], > 100 µM (inactive); in test [3], > 100 µM (inactive); in test [4], over 100 µM; in test [5], > 100 µM (inactive); in [6] it was > 100 µM (inactive). For the same molecule, the GI50 in test [7], in test [8], in test [9], in test [10], in [11] and in test [12] was > 100 µM (inactive) throughout. The GI50 in [13], in [14], in [15], in test [16], in test [17] and in test [18] was > 100 µM (inactive) throughout. Besides, the GI50 in test [19] is > 100 µM (inactive).
For the molecule `Cc1cn(C2CC(N(O)Cc3ccccc3)C(CO[Si](C)(C)C(C)(C)C)O2)c(=O)[nH]c1=O` (centres undefined), the GI50 in test [1] is 15.7 µM (inactive) and 25.5 µM (inactive); in [3] it was 19.6 µM (inactive) and 30.9 µM (inactive); in test [4] it was 37.2 µM; in test [5] it was 13.8 µM (inactive) and 26.7 µM (inactive); in [6], 15.5 µM (inactive) and 18.1 µM (inactive); in test [7], 18.6 µM (inactive) and 18.8 µM (inactive). Further, the GI50 in test [8] is 16.2 µM (inactive) and 19.1 µM (inactive); in test [9], 17.9 µM (inactive) and 18 µM (inactive); in [10], 24.4 µM (inactive) and 27 µM (inactive); in test [12], 17.2 µM (inactive) and 18.8 µM (inactive); in [13], 19.8 µM (inactive) and 16.7 µM (inactive); in [14], 16.6 µM (inactive) and 18.8 µM (inactive). For the same molecule, the GI50 was 17.9 µM (inactive) and 17.7 µM (inactive) in test [15]; 18.9 µM (inactive) and 17.4 µM (inactive) in [17]; 14.5 µM (inactive) and 22.6 µM (inactive) in test [18]; 16.4 µM (inactive) and 16.3 µM (inactive) in test [19]; 16.8 µM (inactive) and 16.5 µM (inactive) in [20].
Regarding `O=c1oc2c/c(=C\c3ccc([N+](=O)[O-])cc3)c(=O)c3cccc1c3-2`, the GI50 in test [1] is > 100 µM (inactive); in test [2] it was > 100 µM (inactive); in test [3], > 100 µM (inactive); in test [4] it was over 100 µM; in [8] it was > 100 µM (inactive); in test [9], > 100 µM (inactive). In addition, the GI50 in test [10], in [11], in test [12], in [13], in [14] and in [15] was > 100 µM (inactive) each time. Further, the GI50 in [16] is > 100 µM (inactive); in test [17], > 100 µM (inactive); in test [18], > 100 µM (inactive); in [19], 54.6 µM (inactive); in test [20], > 100 µM (inactive).
Turning to `CS(=O)(=O)c1ccc(C(=O)O[C@@H]2C(=O)N3CC[C@H]4OC(O)[C@@H]2[C@H]43)cc1` (some centres undefined), the GI50 in [2] was > 100 µM (inactive); in [3], > 100 µM (inactive); in test [4], over 100 µM; in test [5], > 100 µM (inactive); in [6], > 100 µM (inactive); in [7], > 100 µM (inactive). For the same molecule, the GI50 is 64.7 µM (inactive) in [8]; > 100 µM (inactive) in [9]; > 100 µM (inactive) in test [10]; > 100 µM (inactive) in [11]; > 100 µM (inactive) in test [12]; > 100 µM (inactive) in [13]. The GI50 in [14], in test [15], in [16], in [18], in test [19] and in test [20] was > 100 µM (inactive) throughout.
Regarding `O=C1c2ccccc2-c2nc(-c3ccccc3)cc3c2c1nc1ccccc13`, the GI50 was 4.12 µM (inactive) in test [1]; 9.25 µM (inactive) in test [2]; 4.51 µM (inactive) in test [3]; 11.2 µM in test [4]; 16.6 µM (inactive) in test [7]; 10.2 µM (inactive) in test [8]. Besides, the GI50 is 1.87 µM (inactive) in test [9]; 1 µM (active) in [10]; 14.5 µM (inactive) in [11]; 12 µM (inactive) in [12]; 13.8 µM (inactive) in test [13]; 2.67 µM (inactive) in [14]. For the same molecule, the GI50 is 11.4 µM (inactive) in [16]; 1.89 µM (inactive) in [17]; 4.08 µM (inactive) in test [18]; 17.7 µM (inactive) in test [19]; 17.6 µM (inactive) in [20].
`CCOC(=O)CCC(C(=O)OCC)n1nnc2ccc(Nc3c(C)[n+]([O-])c4ccc(Cl)cc4[n+]3[O-])cc21` (centres undefined): the GI50 was 40.5 µM (inactive) in test [1]; 19.9 µM (inactive) in test [3]; 27.9 µM in test [4]; > 100 µM (inactive) in test [5]; 38.5 µM (inactive) in test [6]; 22.4 µM (inactive) in test [7]. Also, the GI50 is 40.2 µM (inactive) in test [8]; 51.9 µM (inactive) in [9]; 45.8 µM (inactive) in test [10]; 28.3 µM (inactive) in test [11]; 27.8 µM (inactive) in test [12]; 39.4 µM (inactive) in test [14]. Moreover, the GI50 is 49.7 µM (inactive) in [15]; 42.2 µM (inactive) in test [16]; 54.7 µM (inactive) in [17]; > 100 µM (inactive) in test [18]; 54.3 µM (inactive) in test [19].
Regarding `O=c1c(/C=C/c2c(O)ccc3ccccc23)nnc2sc(-c3cccc(Br)c3)nn12`, the GI50 in test [1] was 0.773 µM (active); in test [2], 20.8 µM (inactive); in test [3], 13.6 µM (inactive); in test [4], 6.78 µM; in [5], 26.7 µM (inactive); in [6] it was 63.8 µM (inactive). The GI50 in test [8] was 22.5 µM (inactive); in test [9], 21.1 µM (inactive); in test [10] it was 19.9 µM (inactive); in test [11], 22.8 µM (inactive); in test [12] it was 32.7 µM (inactive); in test [13] it was 20.1 µM (inactive). In addition, the GI50 in test [14] is 17.8 µM (inactive); in [15], 25.4 µM (inactive); in [16] it was 13.4 µM (inactive); in test [17], 28.3 µM (inactive); in test [18] it was 22.4 µM (inactive); in test [19] it was 11.6 µM (inactive).
For the molecule `O=C1c2ccccc2C(=O)c2c(NCCCN3CCOCC3)ccc(NCCCN3CCOCC3)c21`, the GI50 was 4.69 µM (inactive) in test [1]; 5.79 µM (inactive) in test [2]; 5.9 µM (inactive) in [3]; 2.55 µM in [4]; 12 µM (inactive) in test [5]; 1.82 µM (inactive) in test [6]. The GI50 was 6.59 µM (inactive) in [7]; 1.23 µM (inactive) in test [8]; 2.16 µM (inactive) in [10]; 1.94 µM (inactive) in test [12]; 2.86 µM (inactive) in test [13]; 2.51 µM (inactive) in test [14]. Also, the GI50 in [15] was 1.54 µM (inactive); in [16], 3.01 µM (inactive); in test [17], 3.22 µM (inactive); in [18] it was 2.61 µM (inactive); in test [19], 6.62 µM (inactive); in [20], 3.08 µM (inactive).
As for `Nc1nc(-c2ccccc2)cc(-c2ccc(F)cc2)c1-c1ccc(Cl)cc1`, the GI50 in test [1] was > 100 µM (inactive); in test [2] it was > 100 µM (inactive); in test [3] it was 41.7 µM (inactive); in [4], over 100 µM; in test [7], > 100 µM (inactive); in [8] it was > 100 µM (inactive). In addition, the GI50 was > 100 µM (inactive) in [9]; 12.5 µM (inactive) in [10]; > 100 µM (inactive) in test [11]; 41.6 µM (inactive) in test [12]; > 100 µM (inactive) in test [13]; > 100 µM (inactive) in test [14]. In addition, the GI50 in test [15] is 31.3 µM (inactive); in [16], > 100 µM (inactive); in test [17], > 100 µM (inactive); in test [18], > 100 µM (inactive); in [19], > 100 µM (inactive); in [20], > 100 µM (inactive).
On to `COc1ccc(/N=N/N2CCCC2)cc1`, for which the GI50 in test [1] was 14.9 µM (inactive); in test [2] it was 44.2 µM (inactive); in test [3], 30.8 µM (inactive); in test [4], 22.6 µM; in [5] it was > 100 µM (inactive); in [6], 29.8 µM (inactive). The GI50 in [7] is > 100 µM (inactive); in test [8] it was 20.1 µM (inactive); in test [9] it was 70.6 µM (inactive); in test [10] it was 31.4 µM (inactive); in test [12] it was > 100 µM (inactive); in test [13], 45.6 µM (inactive). For the same molecule, the GI50 in test [14] is 30.4 µM (inactive); in [15], > 100 µM (inactive); in test [16] it was 31.9 µM (inactive); in test [17] it was 16.9 µM (inactive); in [18], 36.5 µM (inactive); in test [19], 23.2 µM (inactive). Besides, in test [20], the GI50 was 20.5 µM (inactive).
As for `CCOC(=O)CCC(NC(=O)OCc1ccccc1)C(=O)NC(CCC(=O)OCC)C(=O)NN` (centres undefined) (Cbz-Glu(OEt)-Glu(OEt)-NHNH2; configuration not given here), the GI50 in test [1] is > 100 µM (inactive); in test [2] it was > 100 µM (inactive); in test [3], > 100 µM (inactive); in test [4], over 100 µM; in [5] it was > 100 µM (inactive); in [7], > 100 µM (inactive). Moreover, the GI50 in [8], in test [10], in test [13], in test [14], in [15] and in test [16] was > 100 µM (inactive) in each case. Besides, the GI50 in [17], in [18], in test [19] and in test [20] was > 100 µM (inactive) each time.
